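48-hour exposure; five concentrations; linearly interpolated endpoints. TGI: concentration producing complete growth inhibition.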

TGI data for 9 compounds are collected here from PubChem BioAssay (NCI).

Among the test systems are SK-MEL-2 melanoma; NCI-H522 lung; IGROV1 ovarian; EKVX NSCLC; SK-MEL-28 melanoma; UO-31 renal; SF-539 CNS; LOX IMVI melanoma; SR leukemia; SF-295 CNS; A549 NSCLC; KM12 colon; M14 melanoma; HCT-116 colon; NCI-H23 lung; MDA-N; PC-3 prostate; T-47D breast.
Assay in all cases: NCI anticancer screen, dose series, 48 h

On to `C[n+]1ccc(-c2cc[n+](C)cc2)cc1`, for which the TGI with SK-MEL-2 melanoma is 13.1 µM; with NCI-H522 lung, over 34.2 µM; in the experiment on IGROV1 ovarian, over 38.1 µM; in the experiment with EKVX NSCLC, over 60.2 µM; with SK-MEL-28 melanoma, over 100 µM; in the experiment on UO-31 renal it was over 100 µM. Further, the TGI in the experiment with SF-539 CNS was over 46.4 µM; in the experiment with LOX IMVI melanoma, over 48.1 µM; in the experiment on SR leukemia, over 31.6 µM; in the experiment with SF-295 CNS it was over 37.6 µM; with A549 NSCLC, over 95 µM; in the experiment with KM12 colon, over 92.4 µM. In addition, the TGI was over 35.9 µM in the experiment on M14 melanoma, over 44.5 µM in the experiment on HCT-116 colon and over 29.3 µM with NCI-H23 lung.

Turning to `COc1c(C)c(C/C=C(\C)CCCCO)c(OC)c(OC)c1OC`, the TGI with SK-MEL-2 melanoma, in the experiment with MDA-N, in the experiment with NCI-H522 lung, in the experiment with IGROV1 ovarian, in the experiment with PC-3 prostate and in the experiment with EKVX NSCLC was over 100 µM each time. For the same compound, the TGI was over 100 µM in the experiment on UO-31 renal; over 100 µM in the experiment on SF-539 CNS; 61.2 µM in the experiment on LOX IMVI melanoma; over 100 µM in the experiment on SR leukemia; over 100 µM in the experiment on SF-295 CNS; 69.6 µM in the experiment with A549 NSCLC. Besides, the TGI was 41.5 µM with KM12 colon, over 100 µM with M14 melanoma, over 100 µM with HCT-116 colon and over 100 µM in the experiment on NCI-H23 lung.

As to `CCOC(=O)CCC(C(=O)OCC)n1nnc2ccc(Nc3c(C)[n+]([O-])c4cc(Cl)ccc4[n+]3[O-])cc21` (stereo not given), the TGI in the experiment with SK-MEL-2 melanoma was 57 µM; in the experiment on NCI-H522 lung, 47 µM; with IGROV1 ovarian it was 79 µM; with PC-3 prostate, over 100 µM; in the experiment with T-47D breast, 44.3 µM; with EKVX NSCLC, over 100 µM. For the same compound, the TGI in the experiment with UO-31 renal was over 100 µM; in the experiment on SF-539 CNS, 39.9 µM; with LOX IMVI melanoma, 35.7 µM; in the experiment on SR leukemia, over 100 µM; with SF-295 CNS, over 100 µM; in the experiment on A549 NSCLC it was over 100 µM. For the same compound, the TGI in the experiment on KM12 colon was 86.7 µM; with M14 melanoma, 40.2 µM; with HCT-116 colon it was over 100 µM; with NCI-H23 lung, 69.4 µM.

For the compound `COC(=O)n1c(=O)n(-c2ccccc2)c(=O)n1C(=O)Nc1ccccc1`, the TGI in the experiment with SK-MEL-2 melanoma, in the experiment with NCI-H522 lung, in the experiment on IGROV1 ovarian, in the experiment with PC-3 prostate, with T-47D breast and in the experiment with EKVX NSCLC was over 100 µM in each case. The TGI in the experiment on SK-MEL-28 melanoma, in the experiment on UO-31 renal, in the experiment on LOX IMVI melanoma, in the experiment on SR leukemia, in the experiment on SF-295 CNS and with A549 NSCLC was over 100 µM in each case. The TGI in the experiment with KM12 colon, with M14 melanoma, with HCT-116 colon and in the experiment with NCI-H23 lung was over 100 µM each time.

For the compound `O=C(Cc1ccccc1)NNc1nc(NNC(=O)c2ccncc2)nc(Nc2ccccc2)n1`, the TGI in the experiment on MDA-N, in the experiment with IGROV1 ovarian, with T-47D breast, in the experiment on EKVX NSCLC, in the experiment on SK-MEL-28 melanoma and in the experiment with UO-31 renal was over 10 µM throughout. In addition, the TGI in the experiment with SF-539 CNS, with LOX IMVI melanoma, with SR leukemia, in the experiment with KM12 colon and with M14 melanoma was over 10 µM in each case.

Regarding `Cc1nc(-c2cc3c(ccc4ccccc43)oc2=O)cc2c1c(=O)oc1ccc3ccccc3c12`, the TGI in the experiment on SK-MEL-2 melanoma, in the experiment on NCI-H522 lung, with IGROV1 ovarian, with PC-3 prostate, in the experiment on T-47D breast and in the experiment on EKVX NSCLC was over 100 µM each time. In addition, the TGI with SK-MEL-28 melanoma, in the experiment on UO-31 renal, in the experiment on SF-539 CNS, in the experiment on LOX IMVI melanoma, with SR leukemia and in the experiment with SF-295 CNS was over 100 µM each time. Further, the TGI in the experiment on A549 NSCLC, with KM12 colon, in the experiment on M14 melanoma, in the experiment with HCT-116 colon and in the experiment on NCI-H23 lung was over 100 µM in each case.

On to `CC(C)Oc1ccc(CNC2=NCCO2)c2ccccc12`, for which the TGI in the experiment with IGROV1 ovarian was 27.9 µM; in the experiment on T-47D breast it was 31.3 µM; with EKVX NSCLC, 29.2 µM; in the experiment with SK-MEL-28 melanoma, 27.6 µM; with UO-31 renal, 18.2 µM; with SF-539 CNS it was 24 µM. In addition, the TGI was found to be 26.3 µM with SR leukemia; 26.8 µM with SF-295 CNS; 30.8 µM in the experiment on A549 NSCLC; 34 µM with KM12 colon; 24.4 µM in the experiment on M14 melanoma; 27 µM in the experiment on HCT-116 colon. The compound also gave a TGI in the experiment with NCI-H23 lung of 30.2 µM.

Take `CSCCCNC(=O)c1csc(-c2csc(CCN)n2)n1`: the TGI in the experiment with NCI-H522 lung, in the experiment on IGROV1 ovarian, with PC-3 prostate, in the experiment with T-47D breast, in the experiment with EKVX NSCLC and in the experiment on SK-MEL-28 melanoma was over 100 µM throughout. The TGI in the experiment with UO-31 renal, with SF-539 CNS, in the experiment with LOX IMVI melanoma, in the experiment with SR leukemia, with SF-295 CNS and in the experiment with A549 NSCLC was over 100 µM in each case. Moreover, the TGI in the experiment with KM12 colon, with M14 melanoma, in the experiment with HCT-116 colon and in the experiment on NCI-H23 lung was over 100 µM in each case.

With `Cc1cc(N(CCCCl)CCCCl)ccc1C=Nc1cccc(Cl)c1`, the TGI in the experiment with SK-MEL-2 melanoma was 36.5 µM; in the experiment with NCI-H522 lung, 43.7 µM; with IGROV1 ovarian it was 35 µM; in the experiment with PC-3 prostate it was 25.9 µM; with T-47D breast it was 24.1 µM; in the experiment on SK-MEL-28 melanoma it was 41.5 µM. Also, the TGI with UO-31 renal turned out to be 44.2 µM; with LOX IMVI melanoma, 26.7 µM; with SR leukemia, 24 µM; in the experiment with SF-295 CNS, 43.5 µM; with A549 NSCLC it was 24.7 µM; in the experiment with KM12 colon it was 26.3 µM. Besides, the TGI with M14 melanoma was 60.5 µM; with HCT-116 colon, over 100 µM; in the experiment with NCI-H23 lung it was 27.7 µM.
